What was measured:
[1] = tested on: antibodies in sera from SARS patients (sera 1a, 1b, 2, 6, 37, 62, London, SARS-yellow, SARS-green); type: binding, human; design: Binding of serum 6 to linear peptides of protein X1 of SARS-CoV Urbani / Binding of serum 37 to linear peptides of protein X1 of SARS-CoV Urbani / Binding of serum 6 to looped/cyclic peptide (PEPSCAN-ELISA) / Binding of serum 37 to looped/cyclic peptide (PEPSCAN-ELISA) / Binding of serum 37 to looped/cyclic peptides of protein X1 of SARS-CoV Urbani / Binding of serum 6 to linear peptides of protein X2 / Binding of serum 37 to linear peptides of protein X2 / Binding of serum 37 to looped/cyclic peptides of protein X2 of SARS-CoV Urbani / Binding of serum 6 to linear peptides of protein M of SARS-CoV Urbani / Binding of serum 37 to linear peptides of protein M of SARS-CoV Urbani / Binding of serum 6 to looped/cyclic peptides of protein M of SARS-CoV Urbani / Binding of serum 37 to looped/cyclic peptides of protein M of SARS-CoV Urbani / Binding of serum 6 to linear peptides of protein X3 of SARS-CoV Urbani / Binding of serum 37 to linear peptides of protein X3 of SARS-CoV Urbani / Binding of serum 37 to looped/cyclic peptides of protein X3 of SARS-CoV Urbani / Binding of serum 6 to linear peptides of protein X4 of SARS-CoV Urbani / Binding of serum 37 to linear peptides of protein X4 of SARS-CoV Urbani / Binding of serum 37 to looped/cyclic peptides of protein X4 of SARS-CoV Urbani / Binding of serum 6 to linear peptides of protein X5 of SARS-CoV Urbani / Binding of serum 37 to linear peptides of protein X5 of SARS-CoV Urbani / Binding of serum 37 to looped/cyclic peptides of protein X5 of SARS-CoV Urbani / Binding of serum 6 to linear peptides of protein N of SARS-CoV Urbani / Binding of serum 37 to linear peptides of protein N of SARS-CoV Urbani / Binding of serum 6 to linear peptide (PEPSCAN-ELISA) / Binding of serum 1a to looped/cyclic peptides of protein N of SARS-CoV Urbani / Binding of serum 1b to looped/cyclic peptides of protein N of SARS-CoV Urbani / Binding of serum 2 to looped/cyclic peptides of protein N of SARS-CoV Urbani / Binding of serum 6 to looped/cyclic peptides of protein N of SARS-CoV Urbani / Binding of serum 37 to looped/cyclic peptides of protein N of SARS-CoV Urbani / Binding of serum 62 to looped/cyclic peptides of protein N of SARS-CoV Urbani / Binding of serum London to looped/cyclic peptides of protein N of SARS-CoV Urbani / Binding of serum SARS-green to looped/cyclic peptides of protein N of SARS-CoV Urbani: unit not given here
[2] = tested on: control sera (pooled serum of ten healthy LUMC hospital workers; commercial negative donor pooled serum from the Dutch bloodbank); type: binding, human; design: Binding of Control serum LUMC to linear peptides / Binding of Control serum Blood-bank to linear peptides / Binding of Control serum LUMC to looped peptides / Binding of Control Serum Blood-Bank to Looped peptides / Binding of Control serum LUMC to linear peptides of the protein M of SARS-CoV Urbani / Binding of Control serum Blood-bank to linear peptides of the protein M of SARS-CoV Urbani / Binding of Control serum LUMC to looped peptides of the protein M of SARS-CoV Urbani / Binding of Control Serum Blood-Bank to Looped peptides of the protein M of SARS-CoV Urbani: unit not given here
[3] = tested on: rabbit serum obtained by immunizing a rabbit with the SARS-CoV strain Frankfurt 1; type: binding; design: Binding of a rabbit serum to linear peptides / Binding of a rabbit serum to looped peptides / Rabbit serum linear peptides / Rabbit serum looped peptides / Binding of a rabbit serum to linear peptides of protein N of SARS-CoV Urbani (Rabbit serum linear peptides) / Binding of a rabbit serum to looped/cyclic peptides of protein N of SARS-CoV Urbani (Rabbit serum looped peptides): unit not given here

## LVDFQVTIAEILIII
[1]
  Binding of serum 1a to linear peptides of protein X3 of SARS-CoV Urbani: 0.8
  Binding of serum 1a to looped/cyclic peptides of protein X3 of SARS-CoV Urbani: 0.7
  Binding of serum 1b to linear peptides of protein X3 of SARS-CoV Urbani: 0.6
  Binding of serum 1b to looped/cyclic peptides of protein X3 of SARS-CoV Urbani: 0.4
  Binding of serum 2 to linear peptides of protein X3 of SARS-CoV Urbani: 0.7
  Binding of serum 2 to looped/cyclic peptides of protein X3 of SARS-CoV Urbani: 0.6
  Binding of serum 6 to linear peptides of protein X3 of SARS-CoV Urbani: 0.5
  Binding of serum 6 to looped/cyclic peptides of protein X3 of SARS-CoV Urbani: 0.3
  Binding of serum 37 to linear peptides of protein X3 of SARS-CoV Urbani: 0.6
  Binding of serum 37 to looped/cyclic peptides of protein X3 of SARS-CoV Urbani: 0.5
  Binding of serum 62 to linear peptides of protein X3 of SARS-CoV Urbani: 0.6
  Binding of serum 62 to looped/cyclic peptides of protein X3 of SARS-CoV Urbani: 0.6
  Binding of serum London to linear peptides of protein X3 of SARS-CoV Urbani: 0.6
  Binding of serum London to looped/cyclic peptides of protein X3 of SARS-CoV Urbani: 0.2
  Binding of serum SARS-green to linear peptides of protein X3 of SARS-CoV Urbani: 0.4
  Binding of serum SARS-green to looped/cyclic peptides of protein X3 of SARS-CoV Urbani: 0.2
  Binding of serum SARS-yellow to linear peptides of protein X3 of SARS-CoV Urbani: 0.7
  Binding of serum SARS-yellow to looped/cyclic peptides of protein X3 of SARS-CoV Urbani: 0.6
[2]
  Binding of Control Serum Blood-Bank to Looped peptides of the protein X3 of SARS-CoV Urbani: 0.6
  Binding of Control serum Blood-bank to linear peptides of the protein X3 of SARS-CoV Urbani: 0.8
  Binding of Control serum LUMC to linear peptides of the protein X3 of SARS-CoV Urbani: 0.9
  Binding of Control serum LUMC to looped peptides of the protein X3 of SARS-CoV Urbani: 0.7
[3]
  Rabbit serum linear peptides: 0.3
  Rabbit serum looped peptides: 0.3

## TVSQIQLSLLKVTAF
[1]
  Binding of serum 1a to linear peptides of protein X2: 0.5
  Binding of serum 1a to looped/cyclic peptides of protein X2 of SARS-CoV Urbani: 0.5
  Binding of serum 1b to linear peptides of protein X2: 0.4
  Binding of serum 1b to looped/cyclic peptides of protein X2 of SARS-CoV Urbani: 0.5
  Binding of serum 2 to linear peptides of protein X2: 0.4
  Binding of serum 2 to looped/cyclic peptides of protein X2 of SARS-CoV Urbani: 0.4
  Binding of serum 6 to linear peptides of protein X2: 0.5
  Binding of serum 6 to looped/cyclic peptides of protein X2 of SARS-CoV Urbani: 1.0
  Binding of serum 37 to linear peptides of protein X2: 0.6
  Binding of serum 37 to looped/cyclic peptides of protein X2 of SARS-CoV Urbani: 0.4
  Binding of serum 62 to linear peptides of protein X2: 0.4
  Binding of serum 62 to looped/cyclic peptides of protein X2 of SARS-CoV Urbani: 0.6
  Binding of serum London to linear peptides of protein X2: 0.3
  Binding of serum London to looped/cyclic peptides of protein X2 of SARS-CoV Urbani: 1.4
  Binding of serum SARS-green to linear peptides of protein X2: 0.1
  Binding of serum SARS-green to looped/cyclic peptides of protein X2 of SARS-CoV Urbani: 0.4
  Binding of serum SARS-yellow to linear peptides of protein X2: 0.6
  Binding of serum SARS-yellow to looped/cyclic peptides of protein X2 of SARS-CoV Urbani: 0.7
[2]
  Binding of Control Serum Blood-Bank to Looped peptides: 0.7
  Binding of Control serum Blood-bank to linear peptides: 0.5
  Binding of Control serum LUMC to linear peptides: 0.6
  Binding of Control serum LUMC to looped peptides: 0.7
[3]
  Binding of a rabbit serum to linear peptides: 0.6
  Binding of a rabbit serum to looped peptides: 0.5

## TTSLSLHKLLQTLVL
[1]
  Binding of serum 1a to linear peptides of protein X2: 0.5
  Binding of serum 1a to looped/cyclic peptides of protein X2 of SARS-CoV Urbani: 0.5
  Binding of serum 1b to linear peptides of protein X2: 0.5
  Binding of serum 1b to looped/cyclic peptides of protein X2 of SARS-CoV Urbani: 0.4
  Binding of serum 2 to linear peptides of protein X2: 0.3
  Binding of serum 2 to looped/cyclic peptides of protein X2 of SARS-CoV Urbani: 0.4
  Binding of serum 6 to linear peptides of protein X2: 0.5
  Binding of serum 6 to looped/cyclic peptides of protein X2 of SARS-CoV Urbani: 0.5
  Binding of serum 37 to linear peptides of protein X2: 0.5
  Binding of serum 37 to looped/cyclic peptides of protein X2 of SARS-CoV Urbani: 0.5
  Binding of serum 62 to linear peptides of protein X2: 0.5
  Binding of serum 62 to looped/cyclic peptides of protein X2 of SARS-CoV Urbani: 0.6
  Binding of serum London to linear peptides of protein X2: 0.5
  Binding of serum London to looped/cyclic peptides of protein X2 of SARS-CoV Urbani: 1.3
  Binding of serum SARS-green to linear peptides of protein X2: 0.6
  Binding of serum SARS-green to looped/cyclic peptides of protein X2 of SARS-CoV Urbani: 0.3
  Binding of serum SARS-yellow to linear peptides of protein X2: 0.3
  Binding of serum SARS-yellow to looped/cyclic peptides of protein X2 of SARS-CoV Urbani: 0.5
[2]
  Binding of Control Serum Blood-Bank to Looped peptides: 0.6
  Binding of Control serum Blood-bank to linear peptides: 0.6
  Binding of Control serum LUMC to linear peptides: 0.4
  Binding of Control serum LUMC to looped peptides: 0.6
[3]
  Binding of a rabbit serum to linear peptides: 0.1
  Binding of a rabbit serum to looped peptides: 0.4

## LYSPLFLIVAALVFL
[1]
  Binding of serum 1a to linear peptides of protein X4 of SARS-CoV Urbani: 0.6
  Binding of serum 1a to looped/cyclic peptides of protein X4 of SARS-CoV Urbani: 0.5
  Binding of serum 1b to linear peptides of protein X4 of SARS-CoV Urbani: 0.4
  Binding of serum 1b to looped/cyclic peptides of protein X4 of SARS-CoV Urbani: 0.3
  Binding of serum 2 to linear peptides of protein X4 of SARS-CoV Urbani: 0.4
  Binding of serum 2 to looped/cyclic peptides of protein X4 of SARS-CoV Urbani: 0.4
  Binding of serum 6 to linear peptides of protein X4 of SARS-CoV Urbani: 0.5
  Binding of serum 6 to looped/cyclic peptides of protein X4 of SARS-CoV Urbani: 0.4
  Binding of serum 37 to linear peptides of protein X4 of SARS-CoV Urbani: 0.6
  Binding of serum 37 to looped/cyclic peptides of protein X4 of SARS-CoV Urbani: 0.5
  Binding of serum 62 to linear peptides of protein X4 of SARS-CoV Urbani: 0.6
  Binding of serum 62 to looped/cyclic peptides of protein X4 of SARS-CoV Urbani: 0.5
  Binding of serum London to linear peptides of protein X4 of SARS-CoV Urbani: 0.6
  Binding of serum London to looped/cyclic peptides of protein X4 of SARS-CoV Urbani: 0.2
  Binding of serum SARS-green to linear peptides of protein X4 of SARS-CoV Urbani: 0.5
  Binding of serum SARS-green to looped/cyclic peptides of protein X4 of SARS-CoV Urbani: 0.4
  Binding of serum SARS-yellow to linear peptides of protein X4 of SARS-CoV Urbani: 0.2
  Binding of serum SARS-yellow to looped/cyclic peptides of protein X4 of SARS-CoV Urbani: 0.4
[2]
  Binding of Control Serum Blood-Bank to Looped peptides: 0.6
  Binding of Control serum Blood-bank to linear peptides: 0.5
  Binding of Control serum LUMC to linear peptides: 0.4
  Binding of Control serum LUMC to looped peptides: 0.6
[3]
  Rabbit serum linear peptides: 0.4
  Rabbit serum looped peptides: 0.3

## QELYSPLFLIVAALV
[1]
  Binding of serum 1a to linear peptides of protein X4 of SARS-CoV Urbani: 0.7
  Binding of serum 1a to looped/cyclic peptides of protein X4 of SARS-CoV Urbani: 0.6
  Binding of serum 1b to linear peptides of protein X4 of SARS-CoV Urbani: 0.5
  Binding of serum 1b to looped/cyclic peptides of protein X4 of SARS-CoV Urbani: 0.4
  Binding of serum 2 to linear peptides of protein X4 of SARS-CoV Urbani: 0.8
  Binding of serum 2 to looped/cyclic peptides of protein X4 of SARS-CoV Urbani: 0.6
  Binding of serum 6 to linear peptides of protein X4 of SARS-CoV Urbani: 0.6
  Binding of serum 6 to looped/cyclic peptides of protein X4 of SARS-CoV Urbani: 0.3
  Binding of serum 37 to linear peptides of protein X4 of SARS-CoV Urbani: 0.7
  Binding of serum 37 to looped/cyclic peptides of protein X4 of SARS-CoV Urbani: 0.6
  Binding of serum 62 to linear peptides of protein X4 of SARS-CoV Urbani: 0.7
  Binding of serum 62 to looped/cyclic peptides of protein X4 of SARS-CoV Urbani: 0.6
  Binding of serum London to linear peptides of protein X4 of SARS-CoV Urbani: 0.7
  Binding of serum London to looped/cyclic peptides of protein X4 of SARS-CoV Urbani: 0.3
  Binding of serum SARS-green to linear peptides of protein X4 of SARS-CoV Urbani: 0.5
  Binding of serum SARS-green to looped/cyclic peptides of protein X4 of SARS-CoV Urbani: 0.6
  Binding of serum SARS-yellow to linear peptides of protein X4 of SARS-CoV Urbani: 0.2
  Binding of serum SARS-yellow to looped/cyclic peptides of protein X4 of SARS-CoV Urbani: 0.5
[2]
  Binding of Control Serum Blood-Bank to Looped peptides: 0.7
  Binding of Control serum Blood-bank to linear peptides: 0.6
  Binding of Control serum LUMC to linear peptides: 0.6
  Binding of Control serum LUMC to looped peptides: 0.7
[3]
  Rabbit serum linear peptides: 0.4
  Rabbit serum looped peptides: 0.5

Reference: patent US20070128217A1 (priority 2003, published 2007)
